The record followed here is patent US10660876B2, “Amino compounds for treatment of medical disorders” (Achillion Pharmaceuticals, Inc., priority 2015, dated 2020).

Structures are written as SMILES. Where only a bound is given, the exact number is not on record here.

In the first experiment the target is Human Factor D (Homo sapiens (Human), UniProt P00746). Briefly: Human Factor D Assay. The note with it: Table 1; Factor D purified from human serum, 80 nM, substrate Z-L-Lys-SBzl; read-out: IC50. Type of experiment: biochemical. The method, then: Example 12. Human Factor D Assay
Chain of Human Factor D (P00746 26-253): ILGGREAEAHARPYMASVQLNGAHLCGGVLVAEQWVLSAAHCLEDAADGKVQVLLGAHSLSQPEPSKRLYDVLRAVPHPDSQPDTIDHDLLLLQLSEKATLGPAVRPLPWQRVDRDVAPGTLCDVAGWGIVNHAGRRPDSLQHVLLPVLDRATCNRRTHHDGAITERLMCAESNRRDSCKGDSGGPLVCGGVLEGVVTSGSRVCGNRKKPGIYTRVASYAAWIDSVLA
Human Factor D (purified from human serum, Complement Technology, Inc.) at 80 nM final concentration is incubated with test compound at various concentrations for 5 minutes at room temperature in 50 mM Tris, 1M NaCl, pH 7.5. A synthetic substrate Z-L-Lys-SBzl and DTNB (Ellman's reagent) are added to final concentrations of 100 μM each. Absorbance at 405 nm (A405) is recorded at 30 second intervals for 30 minutes using a microplate spectrophotometer. IC50 values are calculated by nonlinear regression of complement Factor D reaction rates as a function of test compound concentration.
In general, IC50 refers to the concentration that inhibits the measured activity by half. Take `CC(=O)c1cn(CC(=O)N2C[C@H](F)C[C@H]2C(=O)Nc2noc3cc(C(F)(F)F)ccc23)c2ccc(Nc3cncnc3)cc12` [Compound 52, (2S,4R)-1-(2-(3-acetyl-5-(pyrimidin-5-ylamino)-1H-indol-1-yl)acetyl)-4-fluoro-N-(6-(trifluoromethyl)benzo[d]isoxazol-3-yl)pyrrolidine-2-carboxamide]: the 50% inhibitory concentration (IC50) lay in the range of 1000 to 10000 nM.

For `NC(=O)c1nn(CC(=O)N2C[C@H](F)C[C@H]2C(=O)Nc2cccc(Cl)n2)c2ccc(Nc3cncnc3)cc12` [Compound 12, 1-(2-((2S,4R)-2-(6-chloropyridin-2-ylcarbamoyl)-4-fluoropyrrolidin-1-yl)-2-oxoethyl)-5-(pyrimidin-5-ylamino)-1H-indazole-3-carboxamide], the IC50 is below 1000 nM.

`CC(=O)c1cn(CC(=O)N2C[C@H](F)C[C@H]2C(=O)Nc2cccc3c2OC(C)(C)C3)c2ccc(Nc3cncnc3)cc12` [Compound 24, (2S,4R)-1-(2-(3-acetyl-5-(pyrimidin-5-ylamino)-1H-indol-1-yl)acetyl)-N-(2,2-dimethyl-2,3-dihydrobenzofuran-7-yl)-4-fluoropyrrolidine-2-carboxamide]: the IC50 is below 1000 nM.

For `CC(=O)c1cn(CC(=O)N2C[C@H](F)C[C@H]2C(=O)Nc2cc(C3CC3C)no2)c2ccc(Nc3cncnc3)cc12` (stereo partly drawn) [Compound 65, (2S,4R)-1-(2-(3-acetyl-5-(pyrimidin-5-ylamino)-1H-indol-1-yl)acetyl)-4-fluoro-N-(3-(2-methylcyclopropyl)isoxazol-5-yl)pyrrolidine-2-carboxamide], the half-inhibitory concentration (IC50) is below 1000 nM.

For the molecule `CC(=O)c1cn(CC(=O)N2C[C@H](F)C[C@H]2C(=O)Nc2cccc(-c3ccccc3Cl)c2F)c2ccc(N(COC(=O)C(C)(C)C)c3cncnc3)cc12` [Compound 15, ((3-acetyl-1-(2-((2S,4R)-2-(2′-chloro-2-fluorobiphenyl-3-ylcarbamoyl)-4-fluoropyrrolidin-1-yl)-2-oxoethyl)-1H-indol-5-yl)(pyrimidin-5-yl)amino)methyl pivalate], the IC50 was in the range of 1000 to 10000 nM.

In the case of `CC(=O)c1cn(CC(=O)N2C[C@H](F)C[C@H]2C(=O)Nc2cccc3c2NC(=O)C(C)O3)c2ccc(Nc3cncnc3)cc12` (stereo partly drawn) [Compound 71, (2S,4R)-1-(2-(3-acetyl-5-(pyrimidin-5-ylamino)-1H-indol-1-yl)acetyl)-4-fluoro-N-(2-methyl-3-oxo-3,4-dihydro-2H-benzo[b][1,4]oxazin-5-yl)pyrrolidine-2-carboxamide], the IC50 was 1000 to 10000 nM.

As to `CC(=O)c1cn(CC(=O)N2C[C@H](F)C[C@H]2C(=O)Nc2cccc(O)n2)c2ccc(Nc3cncnc3)cc12` [Compound 68, (2S,4R)-1-(2-(3-acetyl-5-(pyrimidin-5-ylamino)-1H-indol-1-yl)acetyl)-4-fluoro-N-(6-hydroxypyridin-2-yl)pyrrolidine-2-carboxamide], the concentration for half-maximal inhibition (IC50) was below 1000 nM.

On to `CC(=O)c1cn(CC(=O)N2C[C@H](F)C[C@H]2C(=O)Nc2n[nH]c(C)c2-c2ccccc2)c2ccc(Nc3cncnc3)cc12` [Compound 66, (2S,4R)-1-(2-(3-acetyl-5-(pyrimidin-5-ylamino)-1H-indol-1-yl)acetyl)-4-fluoro-N-(5-methyl-4-phenyl-1H-pyrazol-3-yl)pyrrolidine-2-carboxamide], for which the concentration for half-maximal inhibition (IC50) was below 1000 nM.

Turning to `CC(=O)c1cn(CC(=O)N2C[C@H](F)C[C@H]2C(=O)Nc2cncc(Cl)c2)c2ccc(Nc3cncnc3)cc12` [Compound 22, (2S,4R)-1-(2-(3-acetyl-5-(pyrimidin-5-ylamino)-1H-indol-1-yl)acetyl)-N-(5-chloropyridin-3-yl)-4-fluoropyrrolidine-2-carboxamide], the 50% inhibitory concentration (IC50) is below 1000 nM.

In the case of `CC(=O)c1cn(CC(=O)N2C[C@H](F)C[C@H]2C(=O)NCc2cccc(Cl)c2F)c2cc(NS(=O)(=O)C(F)(F)F)ccc12` [Compound 2, (2S,4R)-1-(2-(3-acetyl-6-(trifluoromethyl-sulfonamido)-1H-indol-1-yl)acetyl)-N-(3-chloro-2-fluorobenzyl)-4-fluoropyrrolidine-2-carboxamide], the IC50 is below 1000 nM.

For `CC(=O)c1cn(CC(=O)N2C[C@H](F)C[C@H]2C(=O)Nc2nc(-c3ccccc3Cl)ns2)c2ccc(Nc3cncnc3)cc12` [Compound 29, (2S,4R)-1-(2-(3-acetyl-5-(pyrimidin-5-ylamino)-1H-indol-1-yl)acetyl)-N-(3-(2-chlorophenyl)-1,2,4-thiadiazol-5-yl)-4-fluoropyrrolidine-2-carboxamide], the half-maximal inhibitory concentration (IC50) is below 1000 nM.

As to `CC(=O)c1cn(CC(=O)N2C[C@H](F)C[C@H]2C(=O)Nc2cncc(Cl)n2)c2ccc(Nc3cncnc3)cc12` [Compound 33, (2S,4R)-1-(2-(3-acetyl-5-(pyrimidin-5-ylamino)-1H-indol-1-yl)acetyl)-N-(6-chloropyrazin-2-yl)-4-fluoropyrrolidine-2-carboxamide], the half-maximal inhibitory concentration (IC50) was below 1000 nM.

Turning to `NC(=O)c1nn(CC(=O)N2C[C@H](F)C[C@H]2C(=O)Nc2cccc(-c3ccccc3Cl)c2F)c2ccc(Nc3cccnn3)cc12` [Compound 9, 1-(2-((2S,4R)-2-(2′-chloro-2-fluorobiphenyl-3-ylcarbamoyl)-4-fluoropyrrolidin-1-yl)-2-oxoethyl)-5-(pyridazin-3-ylamino)-1H-indazole-3-carboxamide], the half-inhibitory concentration (IC50) is below 1000 nM.

Consider `CC(=O)c1cn(CC(=O)N2C[C@H](F)C[C@H]2C(=O)NCc2cccnc2)c2ccc(Nc3cncnc3)cc12` [Compound 43, (2S,4R)-1-(2-(3-acetyl-5-(pyrimidin-5-ylamino)-1H-indol-1-yl)acetyl)-4-fluoro-N-(pyridin-3-ylmethyl) pyrrolidine-2-carboxamide], for which the IC50 was below 1000 nM.

On to `CC(=O)c1cn(CC(=O)N2C[C@H](F)C[C@H]2C(=O)Nc2ccc(OCc3ccccc3)cn2)c2ccc(Nc3cncnc3)cc12` [Compound 45, (2S,4R)-1-(2-(3-acetyl-5-(pyrimidin-5-ylamino)-1H-indol-1-yl)acetyl)-N-(5-(benzyloxy)pyridin-2-yl)-4-fluoropyrrolidine-2-carboxamide], for which the IC50 is below 1000 nM.

Still in this experiment, the particulars now being: Table 3; Factor D purified from human serum, 80 nM, substrate Z-L-Lys-SBzl; read-out: IC50 (Stars).
For the molecule `CC(=O)c1cn(CC(=O)N2C[C@H](F)C[C@H]2C(=O)NCCc2ccccc2)c2ccc(Nc3cccnc3)cc12` [Compound 148, (2S,4R)-1-(2-(3-acetyl-5-(pyridin-3-ylamino)-1H-indol-1-yl)acetyl)-4-fluoro-N-phenethylpyrrolidin-2-carboxamide], the IC50 was below 1000 nM.

Turning to `CC(=O)c1cn(CC(=O)N2CC[C@H]2C(=O)Nc2cccc(C)n2)c2ccc(Nc3cccnc3)cc12` [Compound 159, (S)-1-(2-(3-acetyl-5-(pyridin-3-ylamino)-1H-indol-1-yl)acetyl)-N-(6-methylpyridin-2-yl)azetidine-2-carboxamide], the 50% inhibitory concentration (IC50) was above 10000 nM.

As for `CC(=O)c1cn(CC(=O)N2C[C@H](F)C[C@H]2C(=O)NCCc2ccccc2)c2ccc(Nc3cncnc3)cc12` [Compound 154, (2S,4R)-1-(2-(3-acetyl-5-(pyrimidin-5-ylamino)-1H-indol-1-yl)acetyl)-4-fluoro-N-phenethylpyrrolidin-2-carboxamide], the IC50 was below 1000 nM.

`CC(=O)c1nn(CC(=O)N2C[C@H](F)C[C@H]2C(=O)Nc2cccc(Br)n2)c2ccc(Nc3cncc(F)c3)cc12` [Compound 164, (2S,4R)-1-(2-(3-acetyl-5-((5-yl)amino)-1H-indazol-1-yl)acetyl)-N-(6-bromopyridin-2-yl)-4-fluoropyrrolidine-2-carboxamide]: the concentration for half-maximal inhibition (IC50) is below 1000 nM.
